This note sets out measurements from ChEMBL document CHEMBL4706545, “Antiproliferative effect of mitochondria-targeting allobetulin 1,2,3-triazolium salt derivatives and their mechanism of inducing apoptosis of cancer cells” (Eur J Med Chem, 2020).

The test system of one test is L02. Put plainly: Cytotoxicity against human HL7702 cells assessed as reduction in cell viability incubated for 48 hrs by MTT assay. It is filed as ADME, cell-based. The settings on record: L02, 48 h. (Tetrazolium dyes change colour on reduction, which living cells bring about.)
The next test concerns HepG2. Put plainly: Cytotoxicity against human HepG2 cells assessed as reduction in cell viability incubated for 48 hrs by MTT assay. In kind it is functional, cell-based. The settings on record: HepG2, 48 h.
For another test, the system named is ECa-109 cell line. Put plainly: Cytotoxicity against human ECa-109 cells assessed as reduction in cell viability incubated for 48 hrs by MTT assay. It is filed as functional, cell-based. The settings on record: ECa-109, 48 h.
Another test concerns SGC-7901. Put plainly: Cytotoxicity against human SGC-7901 cells assessed as reduction in cell viability incubated for 48 hrs by MTT assay. In kind it is functional, cell-based. The settings on record: SGC-7901, 48 h.
The subject of another test is HeLa. Briefly: Cytotoxicity against human HeLa cells assessed as reduction in cell viability incubated for 48 hrs by MTT assay. It is filed as functional, cell-based.

On to `COc1ccc(CCn2n[n+](C)c3c2C(C)(C)[C@@H]2CC[C@]4(C)[C@H](CC[C@@H]5[C@H]6[C@H]7OC[C@@]6(CCC7(C)C)CC[C@]54C)[C@@]2(C)C3)cc1`, for which the IC50 (commonly the midpoint of a concentration-inhibition curve) in the test with L02 is 2.09 µM; in the test on HepG2, 2.91 µM; in the test with ECa-109 cell line it was 1.97 µM; with SGC-7901, 2.39 µM; with HeLa it was 2.85 µM.

Turning to `COc1ccc(CCn2nnc3c2C(C)(C)[C@@H]2CC[C@]4(C)[C@H](CC[C@@H]5[C@H]6[C@H]7OC[C@@]6(CCC7(C)C)CC[C@]54C)[C@@]2(C)C3)cc1`, the 50% inhibitory concentration (IC50) came out at 39.3 µM in the test with L02; 36.6 µM in the test on HepG2; 51.8 µM in the test with ECa-109 cell line; 45.2 µM with SGC-7901; 42.5 µM with HeLa.

As to `COc1ccccc1Cn1nnc2c1C(C)(C)[C@@H]1CC[C@]3(C)[C@H](CC[C@@H]4[C@H]5[C@H]6OC[C@@]5(CCC6(C)C)CC[C@]43C)[C@@]1(C)C2`, the IC50 is 38.4 µM in the test with L02; 46.7 µM in the test with HepG2; 57.9 µM in the test on ECa-109 cell line; 53 µM in the test with SGC-7901; 41.9 µM with HeLa.

For `CCCCCCCCn1nnc2c1C(C)(C)[C@@H]1CC[C@]3(C)[C@H](CC[C@@H]4[C@H]5[C@H]6OC[C@@]5(CCC6(C)C)CC[C@]43C)[C@@]1(C)C2`, the IC50 in the test with L02, in the test with HepG2, in the test on ECa-109 cell line, with SGC-7901 and in the test with HeLa was more than 80 µM in each case.

For the compound `CCCCCCn1nnc2c1C(C)(C)[C@@H]1CC[C@]3(C)[C@H](CC[C@@H]4[C@H]5[C@H]6OC[C@@]5(CCC6(C)C)CC[C@]43C)[C@@]1(C)C2`, the IC50 was 51.9 µM in the test on L02; more than 80 µM in the test on HepG2; 37.4 µM in the test on ECa-109 cell line; 40.9 µM with SGC-7901; more than 80 µM in the test with HeLa.

Consider `C[n+]1nn(Cc2ccc(Cl)c(Cl)c2)c2c1C[C@]1(C)[C@H]3CC[C@@H]4[C@H]5[C@H]6OC[C@@]5(CCC6(C)C)CC[C@@]4(C)[C@]3(C)CC[C@H]1C2(C)C`, for which the concentration for half-maximal inhibition (IC50) with L02 turned out to be 2.29 µM; in the test on HepG2, 2.96 µM; with ECa-109 cell line, 3.03 µM; with SGC-7901, 2.99 µM; with HeLa, 2.83 µM.

In the case of `C[n+]1nn(CCc2c[nH]c3ccccc23)c2c1C[C@]1(C)[C@H]3CC[C@@H]4[C@H]5[C@H]6OC[C@@]5(CCC6(C)C)CC[C@@]4(C)[C@]3(C)CC[C@H]1C2(C)C`, the IC50 amounted to 2.9 µM with L02; 3.17 µM in the test on HepG2; 3.13 µM in the test on ECa-109 cell line; 3.05 µM in the test on SGC-7901; 3.19 µM with HeLa.

In the case of `COc1cccc(CCn2n[n+](C)c3c2C(C)(C)[C@@H]2CC[C@]4(C)[C@H](CC[C@@H]5[C@H]6[C@H]7OC[C@@]6(CCC7(C)C)CC[C@]54C)[C@@]2(C)C3)c1`, the half-maximal inhibitory concentration (IC50) in the test on L02 stood at 2.21 µM; in the test on HepG2 it was 2.72 µM; in the test on ECa-109 cell line, 2.06 µM; in the test on SGC-7901, 2.37 µM; with HeLa, 2.87 µM.

Consider `CC1(C)CC[C@]23CC[C@]4(C)[C@H](CC[C@@H]5[C@@]6(C)Cc7nnn(Cc8ccc(Cl)c(Cl)c8)c7C(C)(C)[C@@H]6CC[C@]54C)[C@H]2[C@H]1OC3`, for which the IC50 in the test on L02 is 35.5 µM; with HepG2, 53.9 µM; in the test with ECa-109 cell line it was 43.6 µM; in the test on SGC-7901, 44.5 µM; in the test with HeLa, 32.6 µM.

Consider `CC1(C)CC[C@]23CC[C@]4(C)[C@H](CC[C@@H]5[C@@]6(C)Cc7nnn(CC(c8ccccc8)c8ccccc8)c7C(C)(C)[C@@H]6CC[C@]54C)[C@H]2[C@H]1OC3`, for which the IC50 was found to be 40.7 µM in the test with L02; 53.9 µM in the test on HepG2; 48.5 µM in the test with ECa-109 cell line; 47.9 µM in the test with SGC-7901; 44.1 µM with HeLa.

With `Cc1ccc(Cn2nnc3c2C(C)(C)[C@@H]2CC[C@]4(C)[C@H](CC[C@@H]5[C@H]6[C@H]7OC[C@@]6(CCC7(C)C)CC[C@]54C)[C@@]2(C)C3)cc1`, the IC50 was found to be 22.7 µM with L02; 26.6 µM in the test on HepG2; 34.8 µM in the test on ECa-109 cell line; 20.3 µM in the test on SGC-7901; 32.3 µM in the test with HeLa.

For `Cc1ccc(Cn2n[n+](C)c3c2C(C)(C)[C@@H]2CC[C@]4(C)[C@H](CC[C@@H]5[C@H]6[C@H]7OC[C@@]6(CCC7(C)C)CC[C@]54C)[C@@]2(C)C3)cc1`, the IC50 in the test on L02 stood at 1.47 µM; in the test with HepG2 it was 2.28 µM; in the test with ECa-109 cell line, 2.62 µM; in the test with SGC-7901 it was 2.16 µM; in the test with HeLa, 2.21 µM.

With `COc1ccccc1CCn1n[n+](C)c2c1C(C)(C)[C@@H]1CC[C@]3(C)[C@H](CC[C@@H]4[C@H]5[C@H]6OC[C@@]5(CCC6(C)C)CC[C@]43C)[C@@]1(C)C2`, the IC50 in the test on L02 came out at 1.4 µM; in the test on HepG2, 1.55 µM; in the test with ECa-109 cell line it was 1.67 µM; with SGC-7901, 1.24 µM; in the test with HeLa, 1.67 µM.

Take `CC1(C)CC[C@]23CC[C@]4(C)[C@H](CC[C@@H]5[C@@]6(C)Cc7nnn(Cc8ccccc8)c7C(C)(C)[C@@H]6CC[C@]54C)[C@H]2[C@H]1OC3`: the IC50 in the test with L02 is 38.5 µM; in the test with HepG2 it was 59.4 µM; with ECa-109 cell line, 53.2 µM; in the test with SGC-7901 it was 55.7 µM; with HeLa, more than 80 µM.

With `C[n+]1nn(Cc2ccccc2)c2c1C[C@]1(C)[C@H]3CC[C@@H]4[C@H]5[C@H]6OC[C@@]5(CCC6(C)C)CC[C@@]4(C)[C@]3(C)CC[C@H]1C2(C)C`, the IC50 in the test with L02 stood at 2 µM; in the test on HepG2, 2.89 µM; in the test on ECa-109 cell line it was 3.29 µM; with SGC-7901, 2.83 µM; with HeLa, 3.02 µM.

As for `COc1ccccc1CCn1nnc2c1C(C)(C)[C@@H]1CC[C@]3(C)[C@H](CC[C@@H]4[C@H]5[C@H]6OC[C@@]5(CCC6(C)C)CC[C@]43C)[C@@]1(C)C2`, the IC50 came to 31.9 µM in the test with L02; 32.8 µM in the test with HepG2; 34.9 µM with ECa-109 cell line; 38.6 µM in the test on SGC-7901; 33.9 µM in the test with HeLa.

Regarding `CCCCn1n[n+](C)c2c1C(C)(C)[C@@H]1CC[C@]3(C)[C@H](CC[C@@H]4[C@H]5[C@H]6OC[C@@]5(CCC6(C)C)CC[C@]43C)[C@@]1(C)C2`, the half-inhibitory concentration (IC50) worked out at 2.2 µM in the test with L02; 3.97 µM in the test with HepG2; 5.14 µM in the test on ECa-109 cell line; 3.25 µM in the test on SGC-7901; 3.99 µM with HeLa.

For `COc1cc(Cn2n[n+](C)c3c2C(C)(C)[C@@H]2CC[C@]4(C)[C@H](CC[C@@H]5[C@H]6[C@H]7OC[C@@]6(CCC7(C)C)CC[C@]54C)[C@@]2(C)C3)cc(OC)c1OC`, the IC50 in the test with L02 was 3.8 µM; with HepG2 it was 3.04 µM; in the test on ECa-109 cell line, 3.35 µM; in the test on SGC-7901, 5.56 µM; with HeLa, 3.8 µM.

As to `CC1(C)CC[C@]23CC[C@]4(C)[C@H](CC[C@@H]5[C@@]6(C)Cc7nnn(Cc8cccc(Cl)c8)c7C(C)(C)[C@@H]6CC[C@]54C)[C@H]2[C@H]1OC3`, the IC50 came to 26.3 µM in the test on L02; 30.7 µM with HepG2; 36.5 µM in the test on ECa-109 cell line; 31.5 µM in the test with SGC-7901; 34.4 µM in the test on HeLa.

Take `COC(Cn1n[n+](C)c2c1C(C)(C)[C@@H]1CC[C@]3(C)[C@H](CC[C@@H]4[C@H]5[C@H]6OC[C@@]5(CCC6(C)C)CC[C@]43C)[C@@]1(C)C2)OC`: the IC50 stood at 4.1 µM with L02; 6.33 µM in the test on HepG2; 5.53 µM in the test with ECa-109 cell line; 6.67 µM in the test with SGC-7901; 5.39 µM in the test on HeLa.

With `COc1cccc(CCn2nnc3c2C(C)(C)[C@@H]2CC[C@]4(C)[C@H](CC[C@@H]5[C@H]6[C@H]7OC[C@@]6(CCC7(C)C)CC[C@]54C)[C@@]2(C)C3)c1`, the IC50 stood at 20.9 µM with L02; 31.9 µM in the test with HepG2; 25.5 µM in the test on ECa-109 cell line; 39.8 µM in the test on SGC-7901; 23.6 µM with HeLa.

Take `COc1cc(Cn2nnc3c2C(C)(C)[C@@H]2CC[C@]4(C)[C@H](CC[C@@H]5[C@H]6[C@H]7OC[C@@]6(CCC7(C)C)CC[C@]54C)[C@@]2(C)C3)cc(OC)c1OC`: the IC50 turned out to be 6.65 µM in the test on L02; 12.1 µM with HepG2; 6.24 µM with ECa-109 cell line; 10.7 µM with SGC-7901; 9.07 µM in the test with HeLa.

With `C[n+]1nn(Cc2cccc(F)c2)c2c1C[C@]1(C)[C@H]3CC[C@@H]4[C@H]5[C@H]6OC[C@@]5(CCC6(C)C)CC[C@@]4(C)[C@]3(C)CC[C@H]1C2(C)C`, the IC50 with L02 was determined as 1.41 µM; in the test with HepG2, 2.24 µM; in the test with ECa-109 cell line, 3 µM; with SGC-7901, 3.05 µM; in the test on HeLa it was 2.78 µM.

With `C[n+]1nn(Cc2ccccc2Cl)c2c1C[C@]1(C)[C@H]3CC[C@@H]4[C@H]5[C@H]6OC[C@@]5(CCC6(C)C)CC[C@@]4(C)[C@]3(C)CC[C@H]1C2(C)C`, the IC50 in the test with L02 worked out at 1.3 µM; in the test with HepG2 it was 3.03 µM; with ECa-109 cell line, 1.98 µM; in the test with SGC-7901, 2.24 µM; in the test with HeLa it was 2.71 µM.

For the compound `C[n+]1nn(Cc2ccc(C(F)(F)F)cc2)c2c1C[C@]1(C)[C@H]3CC[C@@H]4[C@H]5[C@H]6OC[C@@]5(CCC6(C)C)CC[C@@]4(C)[C@]3(C)CC[C@H]1C2(C)C`, the IC50 in the test with L02 came out at 2.26 µM; with HepG2 it was 2.49 µM; in the test with ECa-109 cell line, 3.18 µM; in the test with SGC-7901, 2.84 µM; in the test with HeLa, 3.06 µM.
